The source of these data is patent US5989832A, “Method for screening for non-tetracycline efflux pump inhibitors” (Microcide Pharmaceuticals, Inc., priority 1995, dated 1999).

Entries after “also recorded” stand apart in the source; their conditions may differ. Read-outs that look alike come from different tables or passages of the source. Peptide text beside a SMILES is read from it.

Assay [1] concerns wild-type strains of P. aeruginosa. Particulars: cited from earlier work.
In assay [2] the test system is P. aeruginosa K799/61. The experiment in a line: Susceptibility to tetracycline and ciprofloxacin, pump deficient mutant K799/61.
Assay [3] concerns P. aeruginosa strain K385. The assay can be described thus: microbe, parasite or virus in culture. The settings on record: Pseudomonas aeruginosa, K385, 20 h, read-out: growth inhibition in the absence of ciprofloxacin. Format: cell-based.
The test system of a further assay is P. aeruginosa K385. Particulars: cited from earlier work.
In assay [4] the test system is P. aeruginosa K799/61. The settings on record: mutant strain k799/61; cited from earlier work.
A further assay has as its system mexA-mexB-oprM. Particulars: insertion mutagenesis; cited from earlier work.
For assay [5], the system named is P. aeruginosa PAO1, PAO4098E, K385 and 799/61. The experiment in a line: Tetracycline accumulation in four P. aeruginosa strains (basal level). Format: cell-based, Pseudomonas aeruginosa. The text has this: Alternatively, efflux pumps are identified by their ability to lower the accumulation of a substrate in a cell. Efflux pumps involved in drug resistance can be identified because they confer resistance to antibiotics. Efflux pumps involved in multidrug resistance in bacteria usually give an intermediate level of resistance to a broad range of antibiotics. Specific mechanism of resistance, including specific efflux pumps, give a much higher level of resistance to one antibiotic or a group of structurally related antibiotics. […] To identify whether an efflux pump is involved in antibiotic resistance in a given strain, accumulation experiments should be performed using antibiotics that it is suspected are exported by the efflux pump. The protein pattern in electrophoresis of cytoplasmic membrane proteins should be studied to identify the overexpression of a protein or the appearance of a new band in the protein pattern using gel electrophoresis. For Gram-negative bacteria, the outer membrane proteins should also be studied. Since efflux pumps are a common occurrence in most bacteria, the basal level of antibiotic susceptibility of a wild type might be caused by naturally occurring efflux pumps. […] Mutants that overexpress the pumps can be isolated using antibiotic-containing media. These mutants will be more resistant to antibiotics and will accumulate lower levels of antibiotics. […]

In the next assay the test system is E. coli HN818. The experiment in a line: Susceptibility to acridine orange, AcrAB pump deficient strain HN818. The class given is cell-based. The settings on record: acridine orange alone. From the text: The effect of L-phenylalanyl-L-arginyl-β-naphthylamide was also studied on an AcrAB pump deficient mutant of E. coli which was obtained by transposon mutagenesis in the laboratory of H. Nikaido.

The test system of assay [6] is P. aeruginosa strain 799/61. The assay can be described thus: [3H]-tetracycline accumulation assay, strain 799/61 without efflux pumps. Particulars: CCCP added. Format: cell-based, Pseudomonas aeruginosa. As to the method:
A tetracycline accumulation assay was set up to measure the activity of efflux pumps in P. aeruginosa. The assay measures the accumulation of [3H]-tetracycline in bacteria and was optimized for measuring tetracycline accumulation in P. aeruginosa.
A new tetracycline steady state equilibrium is reached when CCCP is added to the cell suspension and pH equilibrates in both sides of the membrane.

The test system of another assay is AcrAE efflux system. The settings on record: cited from earlier work.

For `CCn1cc(C(=O)O)c(=O)c2cc(F)c(N3CCNCC3)cc21` [norfloxacin], in assay [1], the “efflux by wild-type strains” value is on record as “very effectively”.
One may read the inhibition as the change of the read-out against control, counted positive when it falls. For `N=C(N)NCCC[C@H](NC(=O)[C@@H](N)Cc1ccccc1)C(=O)Nc1ccc2ccccc2c1` [L-phenylalanyl-L-arginyl-β-naphthylamide] (HELM PEPTIDE1{F.R.[c1ccc2cc(N[*:1])ccc2c1]}$$$$V2.0), the “effect on susceptibility to tetracycline and ciprofloxacin” value with P. aeruginosa K799/61 [2] is “no effect”. In [3], the inhibition at 10 µg/mL was determined as 1%.
With `c1ccc(-c2ccccn2)nc1` [2,2'-dipyridyl], the “susceptibility associated with production of a 50-kDa outer membrane protein” value in the assay with P. aeruginosa K385 was “decreased susceptibility”.
For `CN(C)C1C(=O)C(C(N)=O)=C(O)C2(O)C(=O)C3=C(O)c4c(O)cccc4C(C)(O)C3CC12` (stereo not shown) [tetracycline], the “efflux by wild-type strains” value in assay [1] is “very effectively”. Also, the “capability of pumping out” value with P. aeruginosa K799/61 [4] is reported as “essentially incapable of pumping out”. The “susceptibility of the strain with inactivated operon” value with mexA-mexB-oprM is reported as “almost as susceptible as E. coli”. The “tetracycline accumulation, efflux pump overproducer strains” value in assay [5] (PAO4098E and K385) is given as “accumulated lower amounts of tetracycline”. Besides, in assay [5] (strain 799/61), the “intracellular accumulation of tetracycline, strain 799/61 versus others” value is “highest internal concentration; also recorded: accumulated more tetracycline than the wild type PAO1”.
On to `CN(C)c1ccc2cc3ccc(N(C)C)cc3nc2c1` [acridine orange], for which, in the assay with E. coli HN818, the “susceptibility of HN818 to acridine orange versus parent strain” value is “more susceptible to acridine orange than the parent strain”.
Regarding `O=C(N[C@H](CO)[C@H](O)c1ccc([N+](=O)[O-])cc1)C(Cl)Cl` [chloramphenicol], in assay [1], the “efflux by wild-type strains” value was “very effectively”. Moreover, the “capability of pumping out” value in the assay on P. aeruginosa K799/61 [4] was “essentially incapable of pumping out”. Also, in the assay on mexA-mexB-oprM, the “susceptibility of the strain with inactivated operon” value is recorded as “almost as susceptible as E. coli”.
Take `N#CC(C#N)=NNc1cccc(Cl)c1` [CCCP, carbonyl cyanide m-chlorophenylhydrazone]: the tetracycline accumulation entry in assay [6] is on record as “lowered the tetracycline accumulation”.
Regarding acriflavine, the “steady-state accumulation of acriflavine” value in the assay with AcrAE efflux system (acrA mutant vs wild type) is “increases at least fivefold”; in the assay with AcrAE efflux system (wild-type acrA+ strain), “extremely low”.
